Experimental data from PMC10584882 (Communications Biology, 2023).
Values joined by “and” are separate entries in the source; they are usually repeats but may differ in a detail not shown here. Identical values can stand only once.

Assays:
SARS-CoV-2 = assay: Viral loading determination via RT-qPCR in VERO-CCL81 cells; format: cell-based; details: for Viral titer (% control): VERO CCL81, RT-qPCR, experiments 1 and 2
VERO-CCL81 cells = assay: Cell viability assay (CellTiter-Glo), VERO-CCL81; format: cell-based; details: for Cell viability (% control): VERO CCL81, 72 h, replicates of experiments 1 and 2
Method: (§1) VERO-CCL81 was seeded in 96-well plates at a density of 1.5×10^4 cells/well, while LC-HK2 was seeded at a density of 3×10^4 cells/well, following 24 h incubation at 37 °C and 5% CO2 atmosphere. The cell culture media was replaced by serial dilutions of the compounds and the cell viability was determined 72 h post-treatment via CellTiter-Glo® Luminescent Cell Viability Assay (Promega), following the manufacturer’s instructions. Luminescent signal was recorded using a CLARIOstar multi-mode microplate reader (BMG Labtech, Germany). Graphs were generated using GraphPad Prism software version 8.0 (La Jolla, CA, USA, www.graphpad.com). Samples deemed to be technical failures and extreme outlier were removed.

CatL = target: T1, CatL (Homo sapiens, UniProt P07711); assay: Cathepsin inhibition test, CatL; format: biochemical; details: for Residual activity (Vi/V0): Fig. S3 panel b, single replicates
T1 construct: made in house

LC-HK2 cells [1] = assay: Cell viability assay (CellTiter-Glo), LC-HK2; format: cell-based, human; details: for Cell viability (% control): LC-HK2, 72 h, replicates
Method: as §1

LC-HK2 cells [2] = assay: Fluorescence microscopy, S-protein vesicle size in infected LC-HK2 cells; format: cell-based, human; details: 1.5 µM, versus control
Method: LC-HK2 was cultivated on coverslips (13 mm diameter) to approximately 80% confluence. The cells were pre-treated for 2 h with 1.5 µM of S-Calpeptin diluted in DMEM supplemented with 2.5% FBS. The compounds were removed, and SARS-CoV-2 strain diluted in DMEM supplemented with 2.5% FBS was added to LC-HK2 cells at M.O.I of 0.05, allowing absorption for 1 h. The viral inoculum was removed, and cells were gently washed with PBS without calcium and magnesium. The cells were incubated in the continued presence of 1.5 µM of S-Calpeptin diluted in DMEM supplemented with 2.5% FBS and were examined by fluorescence microscopy at the time points 32, 40, 48, 56, 64 and 72 h post-infection.
For this purpose, the cells were fixed and permeabilized with 3.7% formaldehyde solution (Sigma-Aldrich, F1635) containing 0.2% Triton X-100 in PBS 1×. […] The images were captured using fluorescence range intensity adjusted identically within each experimental series.
Vesicles size quantifications were obtained from 2D maximum projections of Z stacks exported as grayscale TIFs (16-bit depth) using Automated Image Analysis in Zen 2.6 blue software (ZEISS). […]
In the Fluorescence microscopy evaluation, the P-values were generated by unpaired t-test using GraphPad Prism version 8.00 (La Jolla, CA, USA, www.graphpad.com). […]

T1 sequence (P07711 114-333): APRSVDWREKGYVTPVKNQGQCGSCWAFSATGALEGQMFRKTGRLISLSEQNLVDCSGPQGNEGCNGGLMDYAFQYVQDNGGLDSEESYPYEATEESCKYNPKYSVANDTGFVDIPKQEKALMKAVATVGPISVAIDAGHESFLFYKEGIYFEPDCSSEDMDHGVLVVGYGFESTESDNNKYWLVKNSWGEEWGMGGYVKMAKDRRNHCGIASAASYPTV

SMILES: CCCC[C@@H](C=O)NC(=O)[C@H](CC(C)C)NC(=O)OCc1ccccc1 [Calpeptin, reference compound]
- EC50 (SARS-CoV-2; Severe acute respiratory syndrome coronavirus 2, VERO-CCL81, RT-qPCR, 48 h post-infection, read-out: Viral titer EC50): 0.99 µM
- Viral titer (% control) (SARS-CoV-2; 0.0781 μM): 100 % control
- Viral titer (% control) (SARS-CoV-2; 0.1563 μM): 100 % control
- Viral titer (% control) (SARS-CoV-2; 0.3125 μM): 100 % control and 79.17 % control
- Viral titer (% control) (SARS-CoV-2; 0.625 μM): 59.82 % control and 89.92 % control
- Viral titer (% control) (SARS-CoV-2; 1.25 μM): 52.69 % control and 49.08 % control
- Viral titer (% control) (SARS-CoV-2; 2.5 μM): 27.29 % control and 39.96 % control
- Viral titer (% control) (SARS-CoV-2; 5 μM): 41.34 % control and 28.43 % control
- Viral titer (% control) (SARS-CoV-2; 10 μM): 15.97 % control and 10.75 % control
- Cell viability (% control) (VERO-CCL81 cells; 0.0781 μM): 94.74 % control and 101.25 % control and 101.91 % control
- Cell viability (% control) (VERO-CCL81 cells; 0.1563 μM): 97.56 % control and 99.32 % control and 100.01 % control
- Cell viability (% control) (VERO-CCL81 cells; 0.3125 μM): 82.19 % control and 89.43 % control and 92.71 % control and 95.68 % control and 100.03 % control and 106.22 % control
- Cell viability (% control) (VERO-CCL81 cells; 0.625 μM): 82.29 % control and 95.76 % control and 97.52 % control and 95.98 % control and 103.97 % control and 109.96 % control
- Cell viability (% control) (VERO-CCL81 cells; 1.25 μM): 89.05 % control and 94.79 % control and 98.25 % control and 97.91 % control and 104.77 % control and 107.22 % control
- Cell viability (% control) (VERO-CCL81 cells; 2.5 μM): 86.26 % control and 94.8 % control and 103.32 % control and 94.24 % control and 103.27 % control and 108.67 % control
- Cell viability (% control) (VERO-CCL81 cells; 5 μM): 90.56 % control and 101.72 % control and 106.83 % control and 95.97 % control and 102.4 % control and 105.71 % control
- Cell viability (% control) (VERO-CCL81 cells; 10 μM): 85.37 % control and 97.81 % control and 103.34 % control and 84.83 % control and 98.42 % control and 92.92 % control
- cytotoxicity (in words) (VERO-CCL81 cells; VERO-CCL81, 72 h): no cytotoxicity up to low micromolar concentrations
- Residual activity (Vi/V0) (CatL; inhibitor 0.010 nM, 10 pM): 1.181 and 1.134 and 0.9277 and 1.059 and 0.8624 and 0.9348 and 0.9777 and 1.017 and 0.9832 and 0.6727
- Residual activity (Vi/V0) (CatL; inhibitor 0.018 nM, 18 pM): 1.262 and 1.015 and 0.8756 and 0.9203 and 0.9271 and 0.9762 and 0.9712 and 1.058 and 1.013 and 1.061
- Residual activity (Vi/V0) (CatL; inhibitor 0.032 nM, 32 pM): 1.274 and 1.3352 and 0.8294 and 0.9418 and 0.8372 and 0.9412 and 1.0025 and 0.9769 and 1.076 and 1.186
- Residual activity (Vi/V0) (CatL; inhibitor 0.058 nM, 58 pM): 1.241 and 1.238 and 0.7232 and 0.8381 and 0.7506 and 0.9356 and 0.9293 and 0.9501 and 1.073 and 1.146
- Residual activity (Vi/V0) (CatL; inhibitor 0.105 nM, 0.000105 µM): 1.299 and 0.9537 and 0.6352 and 0.6893 and 0.6342 and 0.9772 and 0.9319 and 0.9262 and 1.17 and 1.244
- Residual activity (Vi/V0) (CatL; inhibitor 0.189 nM, 0.000189 µM): 1.276 and 0.7939 and 0.4796 and 0.5261 and 0.4831 and 0.8363 and 0.8485 and 0.8665 and 1.045 and 0.9948
- Residual activity (Vi/V0) (CatL; inhibitor 0.340 nM, 0.00034 µM): 1.076 and 0.6362 and 0.1912 and 0.3311 and 0.2442 and 0.7013 and 0.6724 and 0.6039 and 0.9136 and 0.9341
- Residual activity (Vi/V0) (CatL; inhibitor 0.612 nM, 0.000612 µM): 0.7699 and 0.3953 and 0.2966 and 0.328 and 0.2718 and 0.8608 and 0.8769 and 0.888 and 0.6121 and 0.7229
- Residual activity (Vi/V0) (CatL; inhibitor 1.103 nM, 0.001103 µM): 0.6194 and 0.292 and 0.1922 and 0.2117 and 0.1777 and 0.7372 and 0.725 and 0.6702 and 0.5009 and 0.6045
- Residual activity (Vi/V0) (CatL; inhibitor 1.985 nM, 0.001985 µM): 0.4333 and 0.2071 and 0.1127 and 0.1262 and 0.1102 and 0.4283 and 0.4219 and 0.4519 and 0.4308 and 0.4332
- Ki (CatL; mean with standard deviation and 95% confidence interval, pH 5.5, 37 °C): 0.000131 µM
- cytotoxicity (in words) (LC-HK2 cells [1]; LC-HK2, 72 h): no cytotoxicity up to low micromolar concentrations
- Cell viability (% control) (LC-HK2 cells [1]; 0.0006 μM): 102.39 % control and 97.09 % control and 90.2 % control
- Cell viability (% control) (LC-HK2 cells [1]; 0.0012 μM): 105.44 % control and 96.04 % control and 89.58 % control
- Cell viability (% control) (LC-HK2 cells [1]; 0.0024 μM): 109.38 % control and 90.68 % control and 83.12 % control
- Cell viability (% control) (LC-HK2 cells [1]; 0.0049 μM): 106.45 % control and 86.68 % control and 80.82 % control
- Cell viability (% control) (LC-HK2 cells [1]; 0.0098 μM): 103.61 % control and 82.95 % control and 76.92 % control
- Cell viability (% control) (LC-HK2 cells [1]; 0.0195 μM): 100.9 % control and 86.53 % control and 77.59 % control
- Cell viability (% control) (LC-HK2 cells [1]; 0.0391 μM): 106.77 % control and 84.3 % control and 75.79 % control
- Cell viability (% control) (LC-HK2 cells [1]; 0.0781 μM): 97.38 % control and 80.51 % control and 79.02 % control and 97.54 % control and 99.61 % control
- Cell viability (% control) (LC-HK2 cells [1]; 0.1563 μM): 92.74 % control and 97.96 % control and 106.67 % control and 94.71 % control and 97.7 % control and 98.23 % control
- Cell viability (% control) (LC-HK2 cells [1]; 0.3125 μM): 85.53 % control and 96.17 % control and 104.18 % control and 94.18 % control and 98.15 % control and 95.62 % control
- Cell viability (% control) (LC-HK2 cells [1]; 0.625 μM): 92.03 % control and 97.64 % control and 102.17 % control and 95.74 % control and 98.42 % control and 100.55 % control
- Cell viability (% control) (LC-HK2 cells [1]; 1.25 μM): 89.04 % control and 94.62 % control and 99.72 % control and 93.66 % control and 97.57 % control and 100.65 % control
- Cell viability (% control) (LC-HK2 cells [1]; 2.5 μM): 87.58 % control and 93.98 % control and 97.34 % control and 91.87 % control and 96.78 % control and 96.3 % control
- Cell viability (% control) (LC-HK2 cells [1]; 5 μM): 84.13 % control and 88.53 % control and 93.5 % control and 84.79 % control and 90.37 % control and 89.81 % control
- Cell viability (% control) (LC-HK2 cells [1]; 10 μM): 82.98 % control and 84.95 % control and 87.98 % control and 79.13 % control and 81.86 % control and 83.76 % control
- Cell viability (% control) (LC-HK2 cells [1]; 100 μM): 28.28 % control and 43.21 % control and 44.92 % control
- impact on vesicle morphology / S-protein vesicle size (LC-HK2 cells [2]): no substantial impact on vesicle morphology
